Legend:
Tsg101 UEV domain [1] = molecular target: T1, Tsg101 UEV domain (Homo sapiens, UniProt Q99816); assay: Tsg101 melting curves with compounds, relative fluorescence (RFU) shift; format: binding; conditions: at 20 uM
T1 construct: Tsg101 UEV domain (residues 2-145) was encoded in a pET-28b vector; His6-TEV site (N, cleaved yes); made in house; host or cells: E. coli Rosetta 2 (DE3) pLysS
T1 sequence (Q99816 2-145): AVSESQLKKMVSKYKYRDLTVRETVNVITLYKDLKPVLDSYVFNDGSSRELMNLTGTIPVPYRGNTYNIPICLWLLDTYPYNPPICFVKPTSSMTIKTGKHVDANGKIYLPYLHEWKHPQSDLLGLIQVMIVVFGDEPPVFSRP
Experimental: FIG. 13B. TSG101 binding of prazole compounds. Melting curves of TSG101 with various prazole compounds assayed by relative fluorescence (RFU) shift. Two control compounds, K21 and N20, had no effect at 40 μM on the Tsg101 melting curve.
FIG. 14A-F. The ubiquitin E2 variant (UEV) domain of Tsg101 was purified by attaching it to an N-terminal His tag with a Tobacco Etch Virus nuclear-inclusion-a endopeptidase (TEV) cleavage site and isolating the tagged protein through two consecutive nickel columns. The first nickel column bound the Tsg101 with the His tag. Following cleavage of the His tag, Tsg101 flowed straight through the second column, removing any impurities from the cell lysate that also bound to the column in step 1, as well as the TEV protease enzyme.
F) Dose-dependence of Tsg101 normalized melting curves for N16 (top) and F15 (bottom). At same concentration, N16 shifts the melting curve to a greater extent to the left than F15. Specifically, at 20 uM, N16 caused a 12 degree Tm shift while F15 gave rise a 5 degree Tm shift. This difference correlated with the potency observed in the cell-based assay. The plot for N16 contains two control compounds, K21 and N20, which have no effect at 40 uM on the Tsg101 melting curve.

Tsg101 UEV domain [2] = molecular target: T1, Tsg101 UEV domain; assay: NMR / LC-MS binding of compound to Tsg101 UEV domain
Experimental: N16 (20 mM solution, DMSO) was added to Tsg101 UEV domain in a 10:1 ratio (N16 excess).
For binding studies using NMR spectroscopy, the following complexes were made: Tsg101 UEV-N16, UEV-PTAP, UEV-Ub, UEV-N16-PTAP, and UEV-N16-Ub, all in Tsg101 NMR buffer: 20 mM potassium phosphate, 50 mM NaCl, pH 5.8, with UEV concentration of 200 μM.

HIV-1 NL4-3 P7L = assay: Electron microscopy of budding morphologies, WT- or P7L-NL4-3; format: cell-based; conditions: 50 μM N16
Experimental: (§1) FIG. 15A-D. N16 inhibits HIV-1 NL4-3 and Gag VLP production. A) Effect on virus production. Virus particles from N16-treated 293T cells transfected with pNL4-3 as determined by ELISA assay. Top, The compound was added 6 hr prior to DNA transfection and tissue culture media was harvested 24 hr later. Bottom, The compound was added at the indicated concentration 24 hr after DNA transfection and tissue culture media was harvested 24 hr later. Assay values were normalized to that of the DMSO carrier control. B) Effect on virus infectivity. Infectious viral particles per ng p24 as determined by MAGI assay. C) Left, Electron microscopy of particles at cell surface at 24 hr post-N16 addition; Right, Quantitative analysis of budding morphologies. Cells expressing WT- or P7L-NL4-3 were exposed to DMSO carrier or 50 μM N16. Arrows indicate emerging ‘Early’ buds. D) Effects on Gag VLP production. Top, Western blot analysis. Cells treated at the indicated concentration were transfected with DNA encoding Gag-HA. […] Bottom, Quantitative analysis. […]
Electron microscopy was used to identify the event arrested by N16 treatment. […] Treatment of P7L with N16 blocked the residual particle release that the mutation permits (mediated by Alix, an ESCRT adaptor, Fujii, K. et al. (2009)) and shifted the predominant form detected from ‘Tethered’ to ‘Early’.

HIV-1 NL4-3 = assay: Specific virus infectivity by MAGI assay; format: cell-based; conditions: higher concentrations required
Experimental: as §1, with “morphologies.” for “morphologies. Cells expressing WT- or P7L-NL4-3 were exposed to DMSO carrier or 50 μM N16. Arrows indicate emerging ‘Early’ buds. D) Effects on Gag VLP production. Top, Western blot analysis. Cells treated at the indicated concentration were transfected with DNA encoding Gag-HA.”
For production of virus particles, 293T cells were transfected with pNL4-3-ΔEnv and pIIIB Env3-1 plasmids and for virus-like particles (VLP), with pCMV-Gag-HA as previously described (Watanabe et al. (2013)). For specific infectivity, media-associated p24 was determined by ELISA (Immunodiagnostics, Inc.) and equivalent amounts of p24 were used to infect HeLa-CD4+-LTR-3 gal cells for infectivity measurement by the multinuclear activation of a galactosidase indicator (MAGI) assay. […] Virus particle release efficiency was calculated [VLP signal intensity/(VLP signal intensity+cell lysate signal intensity)]. […]

COc1ccc2nc([S@@+]([O-])Cc3ncc(C)c(OC)c3C)[nH]c2c1 [F15, esomeprazole]
Tm shift of Tsg101 melting curve (Tsg101 UEV domain [1]): 5 degree
residue bound in Tsg101 UEV (NMR and fluorescence perturbances) (Tsg101 UEV domain [2]): bind to residue C73

COc1ccc2[nH]c([S+]([O-])Cc3ncc(C)c(OC)c3C)nc2n1 (stereo not shown) [N16, tenatoprazole]
residual particle release of P7L (HIV-1 NL4-3 P7L): blocked
Tm shift of Tsg101 melting curve (Tsg101 UEV domain [1]): 12 degree
residue bound in Tsg101 UEV (NMR and fluorescence perturbances) (Tsg101 UEV domain [2]): bind to residue C73
time to complete formation of N16 UEV complex (Tsg101 UEV domain [2]; 10:1 N16 excess, chemical shift perturbations): 2 h
specific infectivity of the virus (HIV-1 NL4-3): diminished in dose-dependent fashion

Source: US12059413B2, “Methods of inhibiting viruses using compositions targeting TSG101-ubiquitin interaction” (The Research Foundation for the State University of New York, priority 2016, dated 2024)
